This note sets out measurements from patent publication US9409907B2, “Inhibitor compounds” (Cancer Research Technology Limited, priority 2012, dated 2016).

pIC50: −log10 of the molar value. Bounds are passed on as bounds.

full length MPS1, sequence (P33981 whole entry): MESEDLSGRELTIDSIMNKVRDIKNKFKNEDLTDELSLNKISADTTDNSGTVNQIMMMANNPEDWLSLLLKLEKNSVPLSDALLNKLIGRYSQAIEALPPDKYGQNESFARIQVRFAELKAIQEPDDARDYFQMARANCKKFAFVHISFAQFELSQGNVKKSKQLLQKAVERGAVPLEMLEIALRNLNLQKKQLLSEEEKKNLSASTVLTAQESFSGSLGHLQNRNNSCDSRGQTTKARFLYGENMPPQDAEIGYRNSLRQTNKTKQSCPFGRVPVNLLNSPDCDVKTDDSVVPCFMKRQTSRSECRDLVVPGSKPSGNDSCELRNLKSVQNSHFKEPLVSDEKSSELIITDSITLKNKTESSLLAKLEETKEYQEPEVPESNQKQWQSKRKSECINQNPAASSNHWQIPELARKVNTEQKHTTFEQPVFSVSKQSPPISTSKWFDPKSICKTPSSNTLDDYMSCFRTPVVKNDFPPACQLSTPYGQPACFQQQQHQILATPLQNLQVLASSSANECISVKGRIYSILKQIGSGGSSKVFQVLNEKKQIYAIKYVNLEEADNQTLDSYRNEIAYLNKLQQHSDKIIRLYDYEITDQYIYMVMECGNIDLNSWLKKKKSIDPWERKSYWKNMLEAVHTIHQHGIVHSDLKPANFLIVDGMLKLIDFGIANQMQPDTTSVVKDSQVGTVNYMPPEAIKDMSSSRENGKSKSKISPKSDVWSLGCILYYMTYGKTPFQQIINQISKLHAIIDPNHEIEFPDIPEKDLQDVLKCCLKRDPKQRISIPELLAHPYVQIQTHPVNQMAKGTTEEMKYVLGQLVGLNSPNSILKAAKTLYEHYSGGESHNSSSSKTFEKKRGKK

This assay has as its target full length MPS1 (Homo sapiens (Human), UniProt P33981). As to the kind of experiment: Measurement of inhibition of MPS1 kinase (Caliper EZ reader mobility-shift enzyme assay). It is filed as biochemical. The following applies: full length MPS1 12.5 nM or 3 nM, H236 peptide 5 μM, ATP 10 μM, 60 min at room temperature. As for the experimental part:
Measurement of Inhibition of MPS1 Kinase
The reaction was carried out for 60 min at room temperature and stopped by the addition of buffer (10 μl) containing 20 mM EDTA, 0.05% (v/v) Brij-35, in 0.1M HEPES-buffered saline (Free acid, Sigma, UK). The plate was read on a Caliper EZ reader II (Caliper Life Sciences).
The % inhibition of the compounds is calculated relative to the means of selected control wells.
Broadly, the pIC50 is the negative decadic logarithm of the IC50, by convention in mol/L. As for `COc1cc(-c2cnn(C)c2)ccc1Nc1ncc2ccnc(-c3cnn(CC(F)F)c3)c2n1` [Example 93, 8-(1-(2,2-difluoroethyl)-1H-pyrazol-4-yl)-N-(2-methoxy-4-(1-methyl-1H-pyrazol-4-yl)phenyl)pyrido[3,4-d]pyrimidin-2-amine], the pIC50 is 8.00.
The figure for `COc1cc(C(=O)N(C)C)ccc1Nc1ncc2ccnc(NCC(C)(C)OC)c2n1` [Example 194] is 7.96.
The figure for `COc1cc(-c2cnn(C)c2)ccc1Nc1ncc2ccnc(NCC(C)(C)OC)c2n1` [Example 86, N8-(2-methoxy-2-methylpropyl)-N2-(2-methoxy-4-(1-methyl-1H-pyrazol-4-yl)phenyl)pyrido[3,4-d]pyrimidine-2,8-diamine] is 8.30.
Take `COc1cc(-c2cnn(C)c2)ccc1Nc1ncc2ccnc(NCCO)c2n1` [Example 126, 2-(2-(2-Methoxy-4-(1-methyl-1H-pyrazol-4-yl)phenylamino)pyrido[3,4-d]pyrimidin-8-ylamino)ethanol]: the pIC50 was 7.96.
Under `COc1cc(C(=O)N2CC(OC)C2)ccc1Nc1cc2c(-c3ccn(C)n3)cccc2cn1` [Example 12, (3-methoxy-4-((5-(1-methyl-1H-pyrazol-3-yl)isoquinolin-3-yl)amino)phenyl)(3-methoxyazetidin-1-yl)methanone] stands 7.59.
The figure for `COc1cc(-c2cnn(C)c2)ccc1Nc1ncc2ccnc(N3CCN(C)CC3)c2n1` [Example 62, N-(2-methoxy-4-(1-methyl-1H-pyrazol-4-yl)phenyl)-8-(4-methylpiperazin-1-yl)pyrido[3,4-d]pyrimidin-2-amine] is 8.05; for `COc1cc(-c2cnn(C)c2)ccc1Nc1ncc2ccnc(Cl)c2n1` [Example 94, 8-chloro-N-(2-methoxy-4-(1-methyl-1H-pyrazol-4-yl)phenyl)pyrido[3,4-d]pyrimidin-2-amine] it is 6.79; for `COc1cc(-c2cnn(C)c2)ccc1Nc1ncc2ccnc(NC[C@]3(C)CCOC3)c2n1` [Example 141, (S)—N^2-(2-methoxy-4-(1-methyl-1H-pyrazol-4-yl)phenyl)-N^3-((3-methyltetrahydrofuran-3-yl)methyl)pyrido[3,4-d]pyrimidine-2,8-diamine] it is 8.52.
Under `COc1cc(-c2cnn(C)c2)ccc1Nc1ncc2ccnc(N3CCOCC3)c2n1` [Example 61, N-(2-methoxy-4-(1-methyl-1H-pyrazol-4-yl)phenyl)-8-morpholinopyrido[3,4-d]pyrimidin-2-amine] stands 8.52; under `COc1cc(-c2cnn(C)c2)ccc1Nc1ncc2ccnc(N3CC(F)(F)C3)c2n1` [Example 63, 8-(3,3-difluoroazetidin-1-yl)-N-(2-methoxy-4-(1-methyl-1H-pyrazol-4-yl)phenyl)pyrido[3,4-d]pyrimidin-2-amine], 7.60.
On to `Cc1ncc(-c2ccc(Nc3cc4c(-c5cnn(C)c5)cccc4cn3)c(Cl)c2)n1C` [Example 11, N-(2-chloro-4-(1,2-dimethyl-1H-imidazol-5-yl)phenyl)-5-(1-methyl-1H-pyrazol-4-yl)isoquinolin-3-amine], for which the pIC50 is 8.22.
The figure for `COc1cc(-c2cnn(C)c2C)ccc1Nc1ncc2ccnc(NCC3(C)COC3)c2n1` [Example 146, N^2-(4-(1,5-dimethyl-1H-pyrazol-4-yl)-2-methoxyphenyl)-N^8-((3-methyloxetan-3-yl)methyl)pyrido[3,4-d]pyrimidine-2,8-diamine] is 8.40; for `COc1cc(-c2nncn2C)ccc1Nc1ncc2c(C)cnc(N3CC4(CCOC4)C3)c2n1` [Example 157, N-(2-methoxy-4-(4-methyl-4H-1,2,4-triazol-3-yl)phenyl)-5-methyl-8-(6-oxa-2-azaspiro[3.4]octan-2-yl)pyrido[3,4-d]pyrimidin-2-amine] it is 8.22; for `COc1cc(-c2cnn(C)c2)ccc1Nc1ncc2ccnc(NC(C)CO)c2n1` (racemic) [Example 129, Racemic 2-(2-(2-Methoxy-4-(1-methyl-1H-pyrazol-4-yl)phenylamino)pyrido[3,4-d]pyrimidin-8-ylamino)propan-1-ol] it is 8.15.
Under `COc1cc(-c2cnn(CCN3CCN(C)CC3)c2)ccc1Nc1ncc2ccnc(NC3CCCCC3)c2n1` [Example 41, N^8-cyclohexyl-N2-(2-methoxy-4-(1-(2-(4-methylpiperazin-1-yl)ethyl)-1H-pyrazol-4-yl)phenyl)pyrido[3,4-d]pyrimidine-2,8-diamine] stands 8.52; under `COc1cc(-c2cnn(C)c2)ccc1Nc1ncc2ccnc(NCC3CCOC3)c2n1` (centres unmarked) [Example 79, N2-(2-methoxy-4-(1-methyl-1H-pyrazol-4-yl)phenyl)-N8-((tetrahydrofuran-3-yl)methyl)pyrido[3,4-d]pyrimidine-2,8-diamine], 8.30; under `COc1cc(N2CCCCC2)ccc1Nc1ncc2ccnc(NCC(C)(C)C)c2n1` [Example 171, N2-(2-methoxy-4-(piperidin-1-yl)phenyl)-N8-neopentylpyrido[3,4-d]pyrimidine-2,8-diamine], 7.19.
The figure for `COc1cc(-c2nncn2C)ccc1Nc1ncc2ccnc(NCC(C)(C)C)c2n1` [Example 175, N2-(2-methoxy-4-(4-methyl-4H-1,2,4-triazol-3-yl)phenyl)-N8-neopentylpyrido[3,4-d]pyrimidine-2,8-diamine] is 8.70; for `COc1cc(-c2cnn(C)c2CO)ccc1Nc1ncc2cc(C)nc(NCC(C)(C)OC)c2n1` [Example 198] it is 8.05; for `COc1cc(C(=O)N2CC(OC)C2)ccc1Nc1cc2c(-c3cnn(C(C)C)c3)cccc2cn1` [Example 7, (4-((5-(1-isopropyl-1H-pyrazol-4-yl)isoquinolin-3-yl)amino)-3-methoxyphenyl)(3-methoxyazetidin-1-yl)methanone] it is 7.96.
Turning to `COc1cc(-c2cnn(C)c2)ccc1Nc1ncc2ccnc(NCC3(O)CC3)c2n1` [Example 112, 1-((2-(2-methoxy-4-(1-methyl-1H-pyrazol-4-yl)phenylamino)pyrido[3,4-d]pyrimidin-8-ylamino)methyl)cyclopropanol], the pIC50 is 8.30.
The figure for `CNc1nccc2cnc(Nc3ccc(-c4cnn(C)c4)cc3OC)nc12` [Example 110, N^2-(2-methoxy-4-(1-methyl-1H-pyrazol-4-yl)phenyl)-N^8-methylpyrido[3,4-d]pyrimidine-2,8-diamine] is 7.77; for `Clc1cc(-c2cncnc2)ccc1Nc1ncc2ccnc(N3CCC4(COC4)C3)c2n1` [Example 200] it is 8.22; for `COc1cc(-c2cnn(C)c2)ccc1Nc1ncc2ccnc(NCC3(CO)COC3)c2n1` [Example 132, (3-((2-(2-Methoxy-4-(1-methyl-1H-pyrazol-4-yl)phenylamino)pyrido[3,4-d]pyrimidin-8-ylamino)methyl)oxetan-3-yl)methanol] it is less than 6.00.
The figure for `COc1cc(C(=O)N2CCN(C)CC2)ccc1Nc1ncc2ccnc(NCC(C)(C)OC)c2n1` [Example 195] is 8.10; for `COc1cc(-c2nncn2C)ccc1Nc1ncc2c(C)cnc(NCC3(C)COC3)c2n1` [Example 155, N^2-(2-methoxy-4-(4-methyl-4H-1,2,4-triazol-3-yl)phenyl)-5-methyl-N^8-((3-methyloxetan-3-yl)methyl)pyrido[3,4-d]pyrimidine-2,8-diamine] it is 8.40.
